For the assay, the system named is Human umbilical vein endothelial cells (HUVEC). Put plainly: Evaluation of NO-production-promoting activity (NO2/NO3 Assay Kit-FX). Type of assay: cell-based. The note with it: 24 hours, sample solution 10 to 1000 μg/mL in medium containing 1% DMSO, culture supernatant. As to the method:
The purple-tea sample and the GHG sample obtained in the above example were dissolved in a medium containing 1% DMSO (concentration: 10 to 1000 μg/mL) to prepare a sample solution. A medium containing 1% DMSO was used for a control.
Human umbilical vein endothelial cells (HUVEC) (6.2×10^4 cells/500 μL) were seeded in 24-well plates, pre cultured for 1 day, then the medium was changed (450 μl). After that, a sample solution of 50 μL was added to each well to react for 24 hours. After the reaction, the culture supernatant was subjected to a measurement of a NO-production amount. For the measurement of the NO-production amount, “NO2/NO3 Assay Kit-FX” (trade name, manufactured by Dojindo Molecular Technologies, Inc.) was used. The results are shown in FIG. 2 (purple-tea extract) and FIG. 3 (GHG).
The NO2/NO3 Assay Kit-FX is a kit used for indirectly measuring NO in a sample by the fluorescence method, using the reaction between NO2^− and DAN (2,3-Diaminonaphthalene).

Consider `O=C(OC1OC2COC(=O)c3cc(O)c(O)c(O)c3-c3c(cc(O)c(O)c3O)C(=O)OC2C(O)C1OC(=O)c1cc(O)c(O)c(O)c1)c1cc(O)c(O)c(O)c1` [GHG, 1,2-di-O-galloyl-4,6-O-(S)-hexahydroxydiphenoyl-β-D-glucose], for which the “NO-production promoting effect (NO2−, NO3− and NO total production)” value is “has a NO3− and a NO-total production-promoting effect”.

(Values after patent publication US20230190854A1, “METHOD OF REDUCING MUSCLE DAMAGE ASSOCIATED WITH INTENSIVE EXERCISE BY ADMINISTERING PURPLE-TEA EXTRACT” (ORYZA OIL & FAT CHEMICAL CO., LTD., priority 2020, published 2023).)
